The record followed here is ChEMBL document CHEMBL1141593, “Acylpyrogallols as inhibitors of antiapoptotic Bcl-2 proteins” (J Med Chem, 2008).

For test [1], the system named is MDA-MB-231. In words: Induction of apoptosis in human MDA-MB-231 2LMP cells assessed as cell death at 3 uM after 4 days by trypan blue exclusion assay. Conditions: MDA-MB-231, 96 h.
The test system of test [2] is MDA-MB-231. In words: Induction of apoptosis in human MDA-MB-231 2LMP cells assessed as cell death at 0.3 uM after 4 days by trypan blue exclusion assay. Conditions: MDA-MB-231, 96 h.

`O=C(c1ccc(Oc2ccccc2)cc1)c1cc(C(=O)c2nc3ccccc3s2)c(O)c(O)c1O`: the cell death at 3 µM in test [1] stood at 86%. Moreover, the cell death at 0.3 µM in test [2] came to 31%.
